Assay results as given in PMC8403366, “Functional significance of gain-of-function H19 lncRNA in skeletal muscle differentiation and anti-obesity effects” (Genome Medicine, 2021).

How the values were obtained:
C57BL/6 J mice [1] = assay: Skeletal muscle immunostaining, fiber number/area, fiber typing, SDH staining; format: in vivo, mouse
Procedure: Skeletal muscles were collected and fixed in 10% Neutral Buffered Formalin at 4 °C for 1 h, followed by 10% sucrose/PBS overnight and then 18% sucrose/PBS overnight at 4 °C before being frozen embedded and sectioned. For immunostaining, frozen cross-sections of muscle were fixed in 4% paraformaldehyde for 5 min, washed, permeabilized with 0.5% Triton X-100, and stained with indicated primary antibodies. After extensive washing in PBS-0.05% Triton X-100, the secondary antibody was added and incubated for 1 h. After extensive washing in PBS-0.05% Triton X-100, nuclei were stained with Vectashield Antifade Mounting Medium with DAPI (Vector Laboratories). Images of laminin-stained fibers were taken by Zeiss microscope. Muscle cross-sectional area and fiber numbers were quantified by ImageJ. Immunostained tissue slides were obtained with Vectra Polaris Multispectral Imaging scanner (PerkinElmer). The quantification of IF staining density was performed by Image-pro plus 6.0 (Media Cybernetics) and calculated based on the average staining intensity and the percentage of positively stained cells. To quantify myotube fusion, fusion index was calculated by dividing the number of nuclei in MHC-positive myotubes with ≥ 3 nuclei by the total number of nuclei analyzed in a field.
Muscle fiber-type immunofluorescence staining was performed with antibodies to MHC type I (supernatant, DSHB, BA-D5), MHC type IIa (supernatant, DSHB, SC-71), and MHC type IIb (supernatant, DSHB, BF-F3), as previously described. Type IIx fibers are not recognized by these antibodies and appeared black. Succinic dehydrogenase (SDH) staining was used to assess metabolic fiber type switch. Frozen cross-sections of muscle were allowed to equilibrate to room temperature and then incubated in a solution containing Nitroblue tetrazolium and sodium succinate for 20 min. Sections were washed 3 times in PBS, dehydrated in ethanol, and mounted with an aqueous mounting medium (Vector Laboratories). The antibodies used are listed in the Additional file 3: Table S3.

C57BL/6 J mice [2] = assay: Echocardiography and diaphragm/aorta histology; format: in vivo, mouse; conditions: vs AGR-Scr
Procedure: The heart function of the mice was assessed using functional rodent echocardiography. After their body hair from the neckline to mid chest level was removed with hair removal cream, the mice were anesthetized with 2% isoflurane in the induction chamber and placed in a supine position atop a heating pad to maintain body temperature. The concentration of isoflurane was adjusted to keep a target heart rate of 450 ± 50 beats per minute (bpm). A rectal probe was gently inserted to continuously monitor and adjust body temperature (37.0 °C ± 0.5 °C) via the heating pad. Electrode gel was applied to all four paws, which were then taped to the ECG electrodes. The mice were subjected to transthoracic echo using Vevo 2100 (MS-550D, 22–55 MHz, VisualSonics Inc.).
Tissues were fixed in 10% Neutral Buffered Formalin embedded in paraffin, sectioned at 5 μm, and stained with hematoxylin/eosin (H&E). Detection of H19 expression using a RNAScope probe (designed by Advanced Cell Diagnostics) was performed on mouse tissues with a RNAScope 2.0 High Definition Assay kit according to the manufacturer's instructions (Advanced Cell Diagnostics). The images were visualized with a Zeiss Axioskop2 plus Microscope, and the slides were scanned on the Automated Cellular Image System III for quantification by digital image analysis.

C57BL/6 J mice [3] = assay: Oxymax/CLAMS metabolic cage study; format: in vivo, mouse; conditions: n = 4
Procedure: Whole-body composition parameters were measured in male and female mice fed with either chow or HFD by Faxitron Specimen Radiography System (Faxitron X-Ray Corp.) to precisely measure total body fat and lean mass. Mice were housed in the Oxymax/CLAMS metabolic cage system (Columbus Instruments) for 4 days with ad libitum access to food and water. Volume of oxygen uptake (VO2) and exhaled carbon dioxide (VCO2), respiratory exchange ratio (RER), and activity were measured using the Oxymax system. RER is determined by dividing VCO2 produced by VO2 consumed.

C57BL/6 J mice [4] = assay: Glucose and insulin tolerance tests; format: in vivo, mouse; conditions: n = 5
Procedure: Insulin (ITT) and glucose (GTT) tolerance tests were performed on 6-h fasted male and female mice fed with chow or HFD. Glucose values were measured using AimStrip® Plus Blood Glucose Meter (VWR) by tail snip. Glucose (1 g per kg body weight) or human insulin (0.75 U per kg body weight) was injected intraperitoneally (i.p.) after baseline glucose levels were measured in each mouse, and blood glucose levels were measured 15, 30, 45, 60, and 90 min after injection.

C57BL/6 J mice [5] = assay: Blood analyses (serum lipids, hormones, ALT, AST)
Procedure: Whole blood was collected by tail bleeding from un-anesthetized mice or cardiac puncture from mice under deep terminal anesthesia. Mice have been fasted for 4–6 h before blood collection. Total cholesterol (TC) and triglycerides (TG) were determined by enzymatic assays using commercial kits (BioAssay Systems). Alanine aminotransferase (ALT) and aspartate aminotransferase (AST) levels were measured using Alanine Transaminase Colorimetric Activity Assay Kit (700260, Cayman Chemical) and EnzyChrom Aspartate Transaminase Assay Kit (EASTR-100, BioAssay Systems). Serum levels of leptin (ELM-Leptin-1, RayBiotech), IGF1 (RAB0229, Sigma), IGF2 (RAB0231, Sigma), insulin (90080, Crystal Chem), and testosterone (KGE010, R&D) were measured by ELISA assay according to the manufacturer’s instructions.

[6] = HFD-fed mice, staining intensity, n = 8
[7] = WT mice, 1 mg/kg i.p. every 3 days, 12 weeks, immunofluorescence, n = 8
[8] = WT mice, MHC isoform immunolabeling, vs AGR-Scr, n = 5

## N-terminal-ELTNEIPAELTNEIPA-Linker-5'-[2’-F-C][2’-F-U][2’-F-C][2’-F-U][2’-F-U][2’-F-U][2’-F-A][2’-F-U][2’-F-U][2’-F-U][2’-F-C][2’-F-U][2’-F-G][2’-F-A][2’-F-G][2’-F-C][2’-F-U][2’-F-U][2’-F-U][2’-F-C][2’-F-C][2’-F-U][2’-F-A][2’-F-U][2’-F-C][2’-F-U][2’-F-U][2’-F-U][2’-F-C][2’-F-C]-3' [AGR-H19-Rgof]
C57BL/6 J mice [1]; HFD-fed mice, n = 10, 9
  fiber area in TA: increased
C57BL/6 J mice [1]; [6]
  Ub-DMD in TA: reduced
  expression of DMD in TA: increased
C57BL/6 J mice [1]; [7]
  DMD protein status in TA: increased DMD protein status
  DRP2 protein status in TA: improved protein status
  nNOS protein status in TA: improved protein status
  β-dystroglycan protein status in TA: improved protein status
C57BL/6 J mice [1]; [8]
  fast glycolytic fiber type IIb in QUAD, SOL and TA: substantial shift toward
  percentage of fast oxidative fiber type IIa in QUAD, SOL and TA: reduced percentage
C57BL/6 J mice [1]; WT mice, vs AGR-Scr, n = 5
  SDH+ fibers in QUAD: reduced SDH+
  SDH+ in TA and GAS: minimally altered
  SDH+ muscle staining in SOL and EDL: increased SDH+
  type I fibers in SOL: marginally reduced
  type II fibers in SOL: increased
C57BL/6 J mice [1]; WT mice, vs AGR-Scr, n = 8
  utrophin protein status in the quadriceps (QUAD): increased
C57BL/6 J mice [1]; WT mice, vs Scr mimics
  muscle fiber area: increased
C57BL/6 J mice [1]; WT mice, vs Scr mimics, n = 5
  number of muscle fibers (SOL, EDL, TA, GAS, QUAD): increased number
C57BL/6 J mice [2]; echocardiography, n = 10
  LV end diastolic diameter, LV stroke volume, LV ejection fraction, LV fractional shortening, interventricular septal end diastole: minimally affected
C57BL/6 J mice [2]; histology, n = 6
  aorta tunica media and tunica adventitia thickness: unaltered
  diaphragm thickness: increased thickness
C57BL/6 J mice [3]; HFD-fed male mice, vs AGR-Scr
  overall food intake: similar
C57BL/6 J mice [3]; HFD-fed mice, CLAMS
  energy expenditure: elevated
C57BL/6 J mice [3]; HFD-fed mice, CLAMS, vs AGR-Scr
  total activity: similar
C57BL/6 J mice [3]; WT male mice on chow, CLAMS, vs control
  activity per day/night: not significantly altered
C57BL/6 J mice [3]; WT male mice on chow, vs control
  total food intake: not significantly altered
C57BL/6 J mice [3]; WT mice on chow, CLAMS, vs AGR-Scr
  respiratory exchange ratio (RER): elevated
C57BL/6 J mice [4]; HFD-fed male mice
  glucose metabolism (GTT): improved
  insulin resistance (ITT, serum insulin, HOMA-IR): alleviated
C57BL/6 J mice [4]; WT male mice on chow, glucose 1 g per kg i.p.
  blood glucose levels in response to a glucose challenge (GTT): reduced
C57BL/6 J mice [4]; WT male mice on chow, insulin 0.75 U per kg i.p.
  blood glucose levels in response to an insulin challenge (ITT): reduced
C57BL/6 J mice [5]; HFD-fed male mice, n = 10, 7
  serum triglyceride concentrations: reduced
C57BL/6 J mice [5]; HFD-fed male mice, serum
  IGF1 concentration: unaltered
  IGF2 concentration: unaltered
C57BL/6 J mice [5]; HFD-fed mice, n = 10, 9
  total cholesterol: reduced
C57BL/6 J mice [5]; HFD-fed mice, serum, n = 7, 7
  leptin: reduced
C57BL/6 J mice [5]; WT mice on chow, serum, vs AGR-Scr, n = 5
  total cholesterol: reduced
C57BL/6 J mice [5]; WT mice on chow, vs AGR-Scr, n = 7
  serum triglyceride concentrations: reduced
